According to patent US9474790B2, “Stable, protracted GLP-1/glucagon receptor co-agonists for medical use” (Novo Nordisk A/S, priority 2013, dated 2016):
Numbered stars: 1 amine (or outer) side, 2 acyl side, 3 side chain; on linkers, the order of the positions; unused ones are H or OH. Square brackets hold non-standard residues; d marks the D form. Side chains are listed from the residue outwards. Peptide text beside a SMILES is read from it. * marks the point of attachment. C18 diacid = O=C(O)CCCCCCCCCCCCCCCCC(=O)*; γGlu = O=C(O)[C@H](CCC(=O)[*:2])N[*:1]; Ac4c = NC1(C(=O)O)CCC1; AEEA = NCCOCCOCC(=O)O; Aib = CC(C)(N)C(=O)O

biological target: T1, human glucagon receptor (Homo sapiens, UniProt P47871); assay: Glucagon receptor binding, 125I-glucagon displacement SPA on isolated membranes; details: displacement of 125I-glucagon from membranes; read-out: IC50 GlucR
T1 construct: expressed in transfected cells; host or cells: BHK cells (parent BHK570, CRE luciferase clone BHK/KZ10-20-48), clone pLJ6'-4-25
How it was run: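 Membranes from BHK cells stably expressing human glucagon receptor incubated 2 h at 25 °C with [125I]-glucagon (25 μl of 480 pM solution) and serial compound dilutions in WGA SPA format, pH 7.4 buffer with 0.1% ovalbumin. Albumin at max 0.001% or 0.2% final. IC50 from non-linear regression.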

T1 sequence (P47871 26-477): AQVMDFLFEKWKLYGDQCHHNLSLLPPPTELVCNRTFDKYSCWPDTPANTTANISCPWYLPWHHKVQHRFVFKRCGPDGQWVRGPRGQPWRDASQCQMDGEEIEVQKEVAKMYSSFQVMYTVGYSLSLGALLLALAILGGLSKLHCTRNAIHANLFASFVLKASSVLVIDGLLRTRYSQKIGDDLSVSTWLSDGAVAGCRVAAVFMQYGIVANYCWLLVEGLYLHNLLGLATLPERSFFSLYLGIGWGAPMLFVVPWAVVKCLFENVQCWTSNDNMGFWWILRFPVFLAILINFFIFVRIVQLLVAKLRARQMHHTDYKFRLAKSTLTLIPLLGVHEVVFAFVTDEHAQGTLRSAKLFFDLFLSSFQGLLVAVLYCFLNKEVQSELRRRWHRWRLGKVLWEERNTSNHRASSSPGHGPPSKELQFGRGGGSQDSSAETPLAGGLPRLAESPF

IC50 [nM]	SMILES
1.5	CC(C)C[C@H](NC(=O)[C@H](CC(=O)O)NC(=O)[C@H](CC(C)C)NC(=O)[C@H](Cc1ccc(O)cc1)NC(=O)[C@H](CCCCN)NC(=O)[C@H](CO)NC(=O)[C@H](CC(C)C)NC(=O)[C@H](CC(=O)O)NC(=O)[C@H](CO)NC(=O)[C@@H](NC(=O)[C@H](Cc1ccccc1)NC(=O)[C@@H](NC(=O)CNC(=O)[C@H](CCC(N)=O)NC(=O)C1(NC(=O)[C@@H](N)Cc2c[nH]cn2)CCC1)[C@@H](C)O)[C@@H](C)O)C(=O)N[C@@H](CCCCN)C(=O)N[C@@H](CCCNC(=N)N)C(=O)N[C@@H](C)C(=O)N[C@@H](CCCNC(=N)N)C(=O)N[C@@H](CCC(=O)O)C(=O)N[C@@H](Cc1ccccc1)C(=O)N[C@H](C(=O)N[C@@H](CCC(N)=O)C(=O)N[C@@H](Cc1c[nH]c2ccccc12)C(=O)N[C@@H](CC(C)C)C(=O)N[C@@H](CC(C)C)C(=O)N[C@@H](CCCCNC(=O)CC[C@H](NC(=O)CC[C@H](NC(=O)COCCOCCNC(=O)COCCOCCNC(=O)CC[C@H](NC(=O)CC[C@H](NC(=O)CCCCCCCCCCCCCCCCC(=O)O)C(=O)O)C(=O)O)C(=O)O)C(=O)O)C(=O)N[C@H](C(N)=O)[C@@H](C)O)C(C)C [Example 47, N^ε28-[(4S)-4-carboxy-4-[[(4S)-4-carboxy-4-[[2-[2-[2-[[2-[2-[2-[[(4S)-4-carboxy-4-[[(4S)-4-carboxy-4-(17-carboxyheptadecanoylamino)butanoyl]amino]butanoyl]amino]ethoxy]ethoxy]acetyl]amino]ethoxy]ethoxy]acetyl]amino]butanoyl]amino]butanoyl]-[Acb2,Leu10,Leu16,Lys17,Arg20,Glu21,Leu27,Lys28]-Glucagon amide] (H-H[Ac4c]QGTFTSDLSKYLDLKRAREFVQWLLK([γGlu-γGlu-AEEA-AEEA-γGlu-γGlu-C18 diacid])T-NH2; N-terminus assumed)
1.7	CC(C)C[C@H](NC(=O)[C@H](CC(=O)O)NC(=O)[C@H](CC(C)C)NC(=O)[C@H](Cc1ccc(O)cc1)NC(=O)[C@H](CCCCN)NC(=O)[C@H](CO)NC(=O)[C@H](CC(C)C)NC(=O)[C@H](CC(=O)O)NC(=O)[C@H](CO)NC(=O)[C@@H](NC(=O)[C@H](Cc1ccccc1)NC(=O)[C@@H](NC(=O)CNC(=O)[C@H](CCC(N)=O)NC(=O)C1(NC(=O)[C@@H](N)Cc2c[nH]cn2)CCC1)[C@@H](C)O)[C@@H](C)O)C(=O)N[C@@H](CCCNC(=N)N)C(=O)N[C@@H](CCCNC(=N)N)C(=O)N[C@@H](C)C(=O)N[C@@H](CCCNC(=N)N)C(=O)N[C@@H](CCC(=O)O)C(=O)N[C@@H](Cc1ccccc1)C(=O)N[C@H](C(=O)N[C@@H](CCC(N)=O)C(=O)N[C@@H](Cc1c[nH]c2ccccc12)C(=O)N[C@@H](CC(C)C)C(=O)N[C@@H](CC(C)C)C(=O)N[C@@H](CCCCNC(=O)CC[C@H](NC(=O)CC[C@H](NC(=O)COCCOCCNC(=O)COCCOCCNC(=O)CC[C@H](NC(=O)CC[C@H](NC(=O)CCCCCCCCCCCCCCCCC(=O)O)C(=O)O)C(=O)O)C(=O)O)C(=O)O)C(=O)N[C@H](C(N)=O)[C@@H](C)O)C(C)C [Example 49, N^ε28-[(4S)-4-carboxy-4-[[(4S)-4-carboxy-4-[[2-[2-[2-[[2-[2-[2-[[(4S)-4-carboxy-4-[[(4S)-4-carboxy-4-(17-carboxyheptadecanoylamino)butanoyl]amino]butanoyl]amino]ethoxy]ethoxy]acetyl]amino]ethoxy]ethoxy]acetyl]amino]butanoyl]amino]butanoyl]-[Acb2,Leu10,Leu16,Arg20,Glu21,Leu27,Lys28]-Glucagon amide] (H-H[Ac4c]QGTFTSDLSKYLDLRRAREFVQWLLK([γGlu-γGlu-AEEA-AEEA-γGlu-γGlu-C18 diacid])T-NH2; N-terminus assumed)
1.4	CC(C)C[C@H](NC(=O)[C@H](Cc1c[nH]c2ccccc12)NC(=O)[C@H](CCC(N)=O)NC(=O)[C@@H](NC(=O)[C@H](Cc1ccccc1)NC(=O)[C@H](CCC(=O)O)NC(=O)[C@H](CCCNC(=N)N)NC(=O)[C@H](C)NC(=O)[C@H](CCCNC(=N)N)NC(=O)[C@H](CCCNC(=N)N)NC(=O)C(C)(C)NC(=O)[C@H](CC(=O)O)NC(=O)[C@H](CC(C)C)NC(=O)[C@H](Cc1ccc(O)cc1)NC(=O)[C@H](CCCCN)NC(=O)[C@H](CO)NC(=O)[C@H](CC(C)C)NC(=O)[C@H](CC(=O)O)NC(=O)[C@H](CO)NC(=O)[C@@H](NC(=O)[C@H](Cc1ccccc1)NC(=O)[C@@H](NC(=O)CNC(=O)[C@H](CCC(N)=O)NC(=O)C(C)(C)NC(=O)[C@@H](N)Cc1c[nH]cn1)[C@@H](C)O)[C@@H](C)O)C(C)C)C(=O)N[C@@H](CC(C)C)C(=O)N[C@@H](CCCCNC(=O)CC[C@H](NC(=O)CC[C@H](NC(=O)COCCOCCNC(=O)COCCOCCNC(=O)CC[C@H](NC(=O)CCCCCCCCCCCCCCCCC(=O)O)C(=O)O)C(=O)O)C(=O)O)C(=O)N[C@H](C(N)=O)[C@@H](C)O [Example 51, N^ε28-[(4S)-4-carboxy-4-[[(4S)-4-carboxy-4-[[2-[2-[2-[[2-[2-[2-[[(4S)-4-carboxy-4-(17-carboxyheptadecanoylamino)butanoyl]amino]ethoxy]ethoxy]acetyl]amino]ethoxy]ethoxy]acetyl]amino]butanoyl]amino]butanoyl]-[Aib2,Leu10,Aib16,Arg20,Glu21,Leu27,Lys28]-Glucagon amide] (H-H[Aib]QGTFTSDLSKYLD[Aib]RRAREFVQWLLK([γGlu-γGlu-AEEA-AEEA-γGlu-C18 diacid])T-NH2; N-terminus assumed)
1.7	CC(C)C[C@H](NC(=O)[C@H](Cc1ccc(O)cc1)NC(=O)[C@H](CCCCN)NC(=O)[C@H](CO)NC(=O)[C@H](CC(C)C)NC(=O)[C@H](CC(=O)O)NC(=O)[C@H](CO)NC(=O)[C@@H](NC(=O)[C@H](Cc1ccccc1)NC(=O)[C@@H](NC(=O)CNC(=O)[C@H](CCC(N)=O)NC(=O)C(C)(C)NC(=O)[C@@H](N)Cc1c[nH]cn1)[C@@H](C)O)[C@@H](C)O)C(=O)N[C@@H](CCC(=O)O)C(=O)N[C@@H](CO)C(=O)N[C@@H](CCCCN)C(=O)N[C@@H](CCCNC(=N)N)C(=O)N[C@@H](C)C(=O)N[C@@H](CCCNC(=N)N)C(=O)N[C@@H](CCC(=O)O)C(=O)N[C@@H](Cc1ccccc1)C(=O)N[C@H](C(=O)N[C@@H](CCC(N)=O)C(=O)N[C@@H](Cc1c[nH]c2ccccc12)C(=O)N[C@@H](CC(C)C)C(=O)N[C@@H](CC(C)C)C(=O)N[C@@H](CCCCNC(=O)CC[C@H](NC(=O)CC[C@H](NC(=O)[C@H](CO)NC(=O)[C@H](CCC(=O)O)NC(=O)[C@H](CO)NC(=O)CC[C@H](NC(=O)CC[C@H](NC(=O)CCCCCCCCCCCCCCCCC(=O)O)C(=O)O)C(=O)O)C(=O)O)C(=O)O)C(=O)N[C@H](C(N)=O)[C@@H](C)O)C(C)C [Example 54, N^ε28-[(4S)-4-carboxy-4-[[(4S)-4-carboxy-4-[[(2S)-2-[[(2S)-4-carboxy-2-[[(2S)-2-[[(4S)-4-carboxy-4-[[(4S)-4-carboxy-4-(17-carboxyheptadecanoylamino)butanoyl]amino]butanoyl]amino]-3-hydroxypropanoyl]amino]butanoyl]amino]-3-hydroxypropanoyl]amino]butanoyl]amino]butanoyl]-[Aib2,Leu10,Glu15,Lys17,Arg20,Glu21,Leu27,Lys28]-Glucagon amide] (H-H[Aib]QGTFTSDLSKYLESKRAREFVQWLLK([γGlu-γGlu-Ser-Glu-Ser-γGlu-γGlu-C18 diacid])T-NH2; N-terminus assumed)
1.4	CC(C)C[C@H](NC(=O)[C@H](Cc1ccc(O)cc1)NC(=O)[C@H](CCCNC(=N)N)NC(=O)[C@H](CO)NC(=O)[C@H](CC(C)C)NC(=O)[C@H](CC(=O)O)NC(=O)[C@H](CO)NC(=O)[C@@H](NC(=O)[C@H](Cc1ccccc1)NC(=O)[C@@H](NC(=O)CNC(=O)[C@H](CCC(N)=O)NC(=O)C1(NC(=O)[C@@H](N)Cc2c[nH]cn2)CCC1)[C@@H](C)O)[C@@H](C)O)C(=O)N[C@@H](CCC(=O)O)C(=O)N[C@@H](CO)C(=O)N[C@@H](CCCNC(=N)N)C(=O)N[C@@H](CCCNC(=N)N)C(=O)N[C@@H](C)C(=O)N[C@@H](CCCNC(=N)N)C(=O)N[C@@H](CCC(=O)O)C(=O)N[C@@H](Cc1ccccc1)C(=O)N[C@H](C(=O)N[C@@H](CCC(N)=O)C(=O)N[C@@H](Cc1c[nH]c2ccccc12)C(=O)N[C@@H](CC(C)C)C(=O)N[C@@H](CC(C)C)C(=O)N[C@@H](CCCCNC(=O)CC[C@H](NC(=O)CC[C@H](NC(=O)COCCOCCNC(=O)COCCOCCNC(=O)CC[C@H](NC(=O)CC[C@H](NC(=O)CCCCCCCCCCCCCCCCC(=O)O)C(=O)O)C(=O)O)C(=O)O)C(=O)O)C(=O)N[C@H](C(N)=O)[C@@H](C)O)C(C)C [Example 59, N^ε28-[(4S)-4-carboxy-4-[[(4S)-4-carboxy-4-[[2-[2-[2-[[2-[2-[2-[[(4S)-4-carboxy-4-[[(4S)-4-carboxy-4-(17-carboxyheptadecanoylamino)butanoyl]amino]butanoyl]amino]ethoxy]ethoxy]acetyl]amino]ethoxy]ethoxy]acetyl]amino]butanoyl]amino]butanoyl]-[Acb2,Leu10,Arg12,Glu15,Arg20,Glu21,Leu27,Lys28]-Glucagon amide] (H-H[Ac4c]QGTFTSDLSRYLESRRAREFVQWLLK([γGlu-γGlu-AEEA-AEEA-γGlu-γGlu-C18 diacid])T-NH2; N-terminus assumed)
